# Results: patent US7659251B2, “Ligand for G-protein coupled receptor FPRL2” (priority 2004, dated 2010)
# What was measured:
# [1] = target: T1, FPR (Homo sapiens, UniProt P21462, E346A/V101L); assay: cAMP accumulation assay (HTRF, forskolin) on FPR-expressing CHO-K1 cells; type: cell-based
# T1 construct: expressed in transfected cells; host or cells: CHO-K1 (with or without Galpha16 and apoaequorin)
# T1 sequence (P21462 1-350 V101L/E346A): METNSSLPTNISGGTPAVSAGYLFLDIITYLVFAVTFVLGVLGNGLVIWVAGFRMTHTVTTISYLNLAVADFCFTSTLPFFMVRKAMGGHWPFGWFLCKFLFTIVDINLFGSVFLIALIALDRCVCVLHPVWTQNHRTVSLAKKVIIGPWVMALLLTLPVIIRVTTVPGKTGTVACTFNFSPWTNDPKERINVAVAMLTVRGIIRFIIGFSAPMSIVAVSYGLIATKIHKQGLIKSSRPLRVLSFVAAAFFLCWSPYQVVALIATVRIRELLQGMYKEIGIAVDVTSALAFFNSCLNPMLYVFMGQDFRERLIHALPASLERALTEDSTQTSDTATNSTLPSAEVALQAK
# Experimental: (§1) The cAMP concentrations were determined using a homogeneous time-resolved fluorescence (HTRF) kit (Cis Bio International). Briefly, cells were detached, resuspended in Krebs Ringer Hepes buffer containing 1 mM 3-Isobutyl-1-methylxanthine, and submitted to 10 μM forskolin, alone or together with increasing concentrations of agonists for 30 min at room temperature. The reaction was stopped by the successive addition of cAMP-XL665 and anti-cAMP cryptate diluted in lysis buffer. The plates were incubated for 60 min at room temperature and read on a Rubystar fluorimeter (BMG). […] A calibration curve was obtained by plotting delta F % versus cAMP concentrations. […] The aequorin-based assay was performed with or without overnight pretreatment with 100 ng/ml Pertussis toxin. […] For FPRL2 polymorphism analysis, HEK cells were transiently transfected with empty and wild-type or Asp338H is FPRL2-containing pcdna vector using calcium phosphate method. Cells were recovered 48 hours later and used for FACS or cAMP experiments.
# [2] = target: T2, FPRL2 (Homo sapiens, UniProt P25089); assay: cAMP accumulation assay (HTRF, forskolin) on FPRL2-expressing CHO-K1 cells; type: cell-based; design: expressed in transfected cells; host or cells: CHO-K1; conditions: CHO-K1 cells expressing FPRL2 but not G alpha 16; without forskolin
# T2 sequence (P25089 1-353): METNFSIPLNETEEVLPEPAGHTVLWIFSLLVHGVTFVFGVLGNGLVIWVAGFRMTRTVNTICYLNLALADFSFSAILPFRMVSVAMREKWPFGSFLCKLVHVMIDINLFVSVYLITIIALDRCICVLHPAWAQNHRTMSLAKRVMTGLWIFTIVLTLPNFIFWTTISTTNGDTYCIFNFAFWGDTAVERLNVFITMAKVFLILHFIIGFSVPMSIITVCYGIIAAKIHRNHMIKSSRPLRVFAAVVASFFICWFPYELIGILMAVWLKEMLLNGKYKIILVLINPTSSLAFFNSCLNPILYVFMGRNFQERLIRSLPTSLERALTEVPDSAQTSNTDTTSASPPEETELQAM
# Experimental: as §1, with “Briefly, cells were detached, resuspended in Krebs Ringer Hepes buffer containing 1 mM 3-Isobutyl-1-methylxanthine, and submitted to 10 μM forskolin, alone or together with increasing concentrations of agonists for 30 min at room temperature.” left out
# [3] = target: T2, FPRL2; assay: Aequorine assay on human FPRL2 expressing cells (Example 9); type: cell-based; design: expressed in transfected cells; host or cells: CHO-K1 (with or without Galpha16 and apoaequorin); conditions: peptides 2.5 μM to 0.4 nM, Mab 500 ug/ml to 5 ug/ml; FIG. 15
# Experimental: Functional responses were analyzed by recording the luminescence of aequorine in human FPRL2 and FPRL1 expressing cells following the addition of agonists or purified monoclonal antibodies.
# In brief, cells were collected from plates with PBS containing 5 mM EDTA, pelleted, resuspend at 5×10^6 cells/ml in DMEM/F-12 medium containing 0.1% bovine serum albumin, incubated with 5 μM coelenterazine H (molecular probes, Inc. Eugene, Oreg.) for 4 h at room temperature and diluted in DMEM/F-12 medium at a concentration of 5×10^5 cells/ml. Cells where then mixed in an 96 wells plate with the ligands or purified monoclonal antibodies. The light emission was recorded over 60 sec using a microlumat Luminometer (EG&G Berthold, microplate luminometer LB 96V).
# Each data point is in duplicate. […] Human FPRL1 expressing cells were used as negative control to Mab. Functionality of these cells has been control with Humanin.
# [4] = target: T1, FPR; assay: Competition binding on FPR-expressing CHO-K1 cells, tracer [125I]-WKYMVm
# Experimental: FPRL2, FPRL1 and FPR-expressing CHO-K1 cells were plated in 24 wells plates (200,000 cells per well for FPRL2, and 100,000 cells per well for the two other receptors). The next day, the cells were washed twice with a KRH buffer containing 280 mM saccharose and, for FPRL1 and FPR, 0.1 % NaN3. […] Cells were washed twice with ice cold buffer, total radioactivity was recovered with 1 M […] and counted in a gamma counter for […]
# [5] = tested on: ERK1/2 MAP-kinases; assay: ERK1/2 activation by Western blotting in FPRL2-expressing CHO-K1 cells; type: cell-based, human
# Experimental: The cAMP concentrations were determined using a homogeneous time-resolved fluorescence (HTRF) kit (Cis Bio International). Briefly, cells were detached, resuspended in Krebs Ringer Hepes buffer containing 1 mM 3-Isobutyl-1-methylxanthine, and submitted to 10 μM forskolin, alone or together with increasing concentrations of agonists for 30 min at room temperature. The reaction was stopped by the successive addition of cAMP-XL665 and anti-cAMP cryptate diluted in lysis buffer. The plates were incubated for 60 min at room temperature and read on a Rubystar fluorimeter (BMG). […] A calibration curve was obtained by plotting delta F % versus cAMP concentrations. ERK1/2 activation was assayed by Western blotting, using an anti-phospho-p42/44 monoclonal antibody (E10, Cell Signaling Technology) as described (46). The aequorin-based assay was performed with or without overnight pretreatment with 100 ng/ml Pertussis toxin. […] For FPRL2 polymorphism analysis, HEK cells were transiently transfected with empty and wild-type or Asp338H is FPRL2-containing pcdna vector using calcium phosphate method. Cells were recovered 48 hours later and used for FACS or cAMP experiments.
smiles,measurement,setting,value
CC[C@H](C)[C@H](NC(=O)[C@H](CCSC)NC(=O)CNC(=O)[C@H](CC(C)C)NC(=O)[C@H](CCSC)NC(C)=O)C(=O)N[C@@H](CCCCN)C(=O)N[C@@H](CC(N)=O)C(=O)N[C@@H](CO)C(=O)N[C@@H](CC(C)C)C(=O)N[C@@H](Cc1ccccc1)C(=O)NCC(=O)N[C@@H](CO)C(=O)N[C@H](C(=O)N[C@@H](CCC(=O)O)C(=O)N[C@H](C(=O)N[C@@H](Cc1c[nH]c2ccccc12)C(=O)N1CCC[C@H]1C(=O)N[C@@H](Cc1c[nH]c2ccccc12)C(=O)N[C@@H](CCC(N)=O)C(=O)N[C@H](C(=O)N[C@@H](CC(C)C)C(=O)O)C(C)C)[C@@H](C)O)C(C)C [F2L],inhibition of cAMP accumulation on FPR,[1]; 1 μM F2L,only partial inhibition
same,EC50,"[1]; FPR, −Log of EC50 in Mol/L, mean ± s.e.m., read-out: pEC50 (cAMP assay) (converted)",> 1000 nM
same,stimulation of cAMP production by itself,[2],unable to stimulate cAMP production
same,activation of human FPRL2 expressing cells,[3],activates
same,IC50,"[4]; FPR, −Log of IC50 in Mol/L, mean ± s.e.m., read-out: pIC50 (binding assay) (converted)",> 1000 nM
same,competition for FPR binding,"[4]; up to concentrations of 3 μM, tracer [125I]WKYMVm",no competition
same,time of maximal ERK1/2 phosphorylation,"[5]; 100 nM F2L, FIG. 11J",15 min
same,concentrations inducing phosphorylation of the ERK1/2 MAP-kinases,"[5]; stimulation for 10 min, FIG. 11I",picomolar concentrations
